The results in this text go back to US8815882B2, “Pyrazole aminopyrimidine derivatives as LRRK2 modulators” (Genentech, Inc., priority 2010, dated 2014).

Structures are written as SMILES.

T1 sequence (Q5S007 whole entry G2019S): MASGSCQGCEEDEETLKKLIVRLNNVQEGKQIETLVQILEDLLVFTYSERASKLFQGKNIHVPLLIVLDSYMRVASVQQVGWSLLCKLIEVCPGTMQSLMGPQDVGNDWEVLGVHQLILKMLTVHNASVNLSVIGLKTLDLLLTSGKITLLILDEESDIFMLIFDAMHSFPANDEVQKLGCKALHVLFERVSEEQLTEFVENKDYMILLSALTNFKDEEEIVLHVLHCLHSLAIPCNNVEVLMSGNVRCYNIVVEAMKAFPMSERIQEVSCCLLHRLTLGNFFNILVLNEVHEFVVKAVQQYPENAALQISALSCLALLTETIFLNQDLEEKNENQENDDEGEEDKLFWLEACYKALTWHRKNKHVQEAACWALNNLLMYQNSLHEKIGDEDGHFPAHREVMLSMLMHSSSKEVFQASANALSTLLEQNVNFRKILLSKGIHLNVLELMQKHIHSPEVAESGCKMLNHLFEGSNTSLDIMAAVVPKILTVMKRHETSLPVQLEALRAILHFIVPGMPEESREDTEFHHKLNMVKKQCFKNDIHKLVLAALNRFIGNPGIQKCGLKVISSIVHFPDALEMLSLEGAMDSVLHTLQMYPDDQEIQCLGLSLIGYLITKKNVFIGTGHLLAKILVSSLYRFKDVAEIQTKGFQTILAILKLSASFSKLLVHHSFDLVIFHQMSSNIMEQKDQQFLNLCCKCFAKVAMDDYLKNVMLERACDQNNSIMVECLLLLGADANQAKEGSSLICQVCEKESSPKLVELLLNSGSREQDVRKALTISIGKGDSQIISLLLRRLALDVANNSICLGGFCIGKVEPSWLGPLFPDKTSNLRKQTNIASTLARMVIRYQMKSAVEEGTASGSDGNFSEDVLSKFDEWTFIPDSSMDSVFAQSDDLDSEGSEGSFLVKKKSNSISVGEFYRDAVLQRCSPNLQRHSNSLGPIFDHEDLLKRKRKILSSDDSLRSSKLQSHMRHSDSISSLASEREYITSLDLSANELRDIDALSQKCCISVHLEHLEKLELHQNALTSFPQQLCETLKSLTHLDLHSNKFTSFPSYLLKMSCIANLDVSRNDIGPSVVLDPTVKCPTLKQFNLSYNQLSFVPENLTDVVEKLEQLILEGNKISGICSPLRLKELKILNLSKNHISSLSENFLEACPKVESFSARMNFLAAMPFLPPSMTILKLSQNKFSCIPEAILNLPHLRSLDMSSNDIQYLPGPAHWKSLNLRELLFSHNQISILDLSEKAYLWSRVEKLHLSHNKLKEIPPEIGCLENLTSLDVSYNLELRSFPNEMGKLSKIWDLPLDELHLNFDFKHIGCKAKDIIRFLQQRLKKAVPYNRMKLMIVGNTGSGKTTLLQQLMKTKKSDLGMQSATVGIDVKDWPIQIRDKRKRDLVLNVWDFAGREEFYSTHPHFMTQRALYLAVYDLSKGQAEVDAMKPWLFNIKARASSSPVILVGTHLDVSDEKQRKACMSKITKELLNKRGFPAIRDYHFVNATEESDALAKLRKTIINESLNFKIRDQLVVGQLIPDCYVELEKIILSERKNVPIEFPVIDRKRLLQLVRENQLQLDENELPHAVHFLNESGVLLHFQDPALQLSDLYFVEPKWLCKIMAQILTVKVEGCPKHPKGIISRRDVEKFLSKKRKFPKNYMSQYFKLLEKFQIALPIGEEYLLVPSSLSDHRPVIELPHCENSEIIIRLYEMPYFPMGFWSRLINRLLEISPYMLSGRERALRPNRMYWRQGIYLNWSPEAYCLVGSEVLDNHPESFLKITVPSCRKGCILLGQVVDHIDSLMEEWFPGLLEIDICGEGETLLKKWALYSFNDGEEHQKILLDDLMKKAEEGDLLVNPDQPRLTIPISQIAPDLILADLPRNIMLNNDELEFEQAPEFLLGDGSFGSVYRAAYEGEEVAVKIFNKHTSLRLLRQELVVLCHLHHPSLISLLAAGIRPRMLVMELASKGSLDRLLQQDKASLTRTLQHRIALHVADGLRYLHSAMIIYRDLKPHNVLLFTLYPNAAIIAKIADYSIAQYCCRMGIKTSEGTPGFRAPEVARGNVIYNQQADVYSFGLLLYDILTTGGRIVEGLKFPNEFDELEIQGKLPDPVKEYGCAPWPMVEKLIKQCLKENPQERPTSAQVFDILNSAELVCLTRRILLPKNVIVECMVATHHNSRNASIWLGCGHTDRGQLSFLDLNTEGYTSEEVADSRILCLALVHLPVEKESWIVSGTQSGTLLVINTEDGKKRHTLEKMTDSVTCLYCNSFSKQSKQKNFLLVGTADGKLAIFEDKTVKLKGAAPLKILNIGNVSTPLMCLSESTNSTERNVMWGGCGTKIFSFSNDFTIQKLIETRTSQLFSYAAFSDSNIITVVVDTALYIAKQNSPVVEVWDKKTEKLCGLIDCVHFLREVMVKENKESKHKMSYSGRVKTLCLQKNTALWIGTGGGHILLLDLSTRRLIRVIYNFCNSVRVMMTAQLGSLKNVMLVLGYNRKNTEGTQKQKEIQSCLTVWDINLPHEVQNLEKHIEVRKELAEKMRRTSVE

One experiment concerns the target T1, LRRK2 (Homo sapiens, UniProt Q5S007, G2019S).
T1 construct: purchased Invitrogen PV4882 (lot 567054A)
Nature of the experiment: In Vitro LRRK2 Assay (LabChip 3000, fluorescently-labeled peptide substrate, ATP). The class given is biochemical. The conditions noted are these: Table 9; LRRK2 Ki (micromolar); read-out: LRRK2 Ki (KI). The gist of the method:
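LRRK2, fluorescent peptide substrate (diluted to 4 μM before mixing), ATP and compound were incubated 2 h in the dark, then stopped. Phosphorylated and unphosphorylated peptide were separated by capillary electrophoresis and quantified by fluorescence. Ki was fitted with a tight-binding equation including enzyme concentration, S and Km; IC50 or percent inhibition were also reported.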
In the case of `CNc1nc(Nc2cnn(CC(F)(F)F)c2C)ncc1C#N` [Example 358, 2-(5-methyl-1-(2,2,2-trifluoroethyl)-1H-pyrazol-4-ylamino)-4-(methylamino) pyrimidine-5-carbonitrile], the Ki is 32 nM.
Turning to `CNc1nc(Nc2cn(-c3cc(F)cc(F)c3)nc2C)ncc1C#N` [Example 367, 2-(1-(3,5-difluorophenyl)-3-methyl-1H-pyrazol-4-ylamino)-4-(methylamino) pyrimidine-5-carbonitrile], the Ki came out at 1.8 nM.
Still for that read-out and setting: as for `CNc1nc(Nc2cnn(C3COC3)c2C)ncc1C#N` [Example 388, 4-Methylamino-2-(5-methyl-1-oxetan-3-yl-1H-pyrazol-4-ylamino)-pyrimidine-5-carbonitrile], the figure is 32.2 nM.

Staying with this experiment, now noted: Table 10; LRRK2 Ki (micromolar); read-out: LRRK2 Ki (KI).
With `CNc1nc(Nc2cn([C@H](C)C(=O)N3CCCC3)nc2C)ncc1C(F)(F)F` [Example 403, (R)-2-(3-methyl-4-(4-(methylamino)-5-(trifluoromethyl)pyrimidin-2-ylamino)-1H-pyrazol-1-yl)-1-(pyrrolidin-l-yl)propan-1-one], the inhibition constant Ki was 16 nM.
Take `CNc1nc(Nc2cnn([C@@H](C)C(=O)N3CCCC3)c2C)ncc1C(F)(F)F` [Example 413, (S)-2-(5-methyl-4-(4-(methylamino)-5-(trifluoromethyl)pyrimidin-2-ylamino)-1H-pyrazol-1-yl)-1-(pyrrolidin-1-yl)propan-1-one]: the Ki is 40 nM.
Still for that read-out and setting: to `CNc1nc(Nc2cn(CC(C)(C)C#N)nc2C)ncc1C(F)(F)F` [Example 420, 2,2-dimethyl-3-(3-methyl-4-(4-(methylamino)-5-(trifluoromethyl)pyrimidin-2-ylamino)-1H-pyrazol-1-yl)propanenitrile] belongs 2.8 nM.
As for `CNc1nc(Nc2cnn(C(C)(C)C(=O)N3CCCC3)c2C)ncc1C(F)(F)F` [Example 400, 2-methyl-2-(5-methyl-4-(4-(methylamino)-5-(trifluoromethyl)pyrimidin-2-ylamino)-1H-pyrazol-1-yl)-1-(pyrrolidin-1-yl)propan-1-one], the Ki was 404 nM.
On the same count and under the same terms, as for `CNc1nc(Nc2cnn(C(C)(C)C#N)c2Cl)ncc1C(F)(F)F` [Example 418, 2-(5-chloro-4-(4-(methylamino)-5-(trifluoromethyl)pyrimidin-2-ylamino)-1H-pyrazol-1-yl)-2-methylpropanenitrile], the figure is 1.9 nM; as for `CNc1nc(Nc2cnn(CC(=O)N(C)C)c2C)ncc1C(F)(F)F` [Example 395, N,N-dimethyl-2-(5-methyl-4-(4-(methylamino)-5-(trifluoromethyl)pyrimidim-2-ylamino)-1H-pyrazol-1-yl)acetamide], 15 nM.

The experiment is the same for the next values; noted with them: read-out: LRRK2 Ki (KI), Table 7.
For the molecule `COc1nc(Nc2cn(C(C)C)nc2C)ncc1Cl` [Example 29, 5-Chloro-N-(1-isopropyl-3-methyl-1H-pyrazol-4-yl)-4-methoxy-pyrimidin-2-amine], the Ki worked out at 22 nM.
On to `COc1nc(Nc2cn(S(=O)(=O)C3CC3)nc2C)ncc1Cl` [Example 71, 5-chloro-N-(1-(cyclopropyl-sulfonyl)-3-methyl-1H-pyrazol-4-yl)-4-methoxy-pyrimidin-2-amine], for which the Ki was determined as 20 nM.
On the same count and under the same terms, to `CNc1nc(Nc2cnn(CCN3CCOCC3)c2)ncc1C(F)(F)F` [Example 3, N^4-methyl-N^2-(1-(2-morpholinoethyl)-1H-pyrazol-4-yl)-5-(trifluoromethyl) pyrimidine-2,4-diamine] belongs 15 nM.

Still in this experiment, the particulars now being: read-out: LRRK2 Ki (KI), Table 8.
On to `CNc1nc(Nc2cn(C(C)(C)c3cnn(C)c3)nc2C)ncc1C(F)(F)F` [Example 340, N4-methyl-N2-(3-methyl-1-(2-(1-methyl-1H-pyrazol-4-yl)propan-2-yl)-1H-pyrazol-4-yl)-5-(trifluoromethyl) pyrimidine-2,4-diamine], for which the Ki amounted to 0.3 nM.
On the same count and under the same terms, to `CCNc1nc(Nc2cnn(CC(C)(C)O)c2Cl)ncc1C(F)(F)F` [Example 234, 1-(5-chloro-4-(4-(ethylamino)-5-(trifluoromethyl)pyrimidin-2-ylamino)-1H-pyrazol-1-yl)-2-methylpropan-2-ol] belongs 3.1 nM; to `CNc1nc(Nc2cn(-c3cc(F)cc(F)c3)nc2C)ncc1Br` [Example 116, 5-bromo-N2-(1-(3,5-difluorophenyl)-3-methyl-1H-pyrazol-4-yl)-N4-methylpyrimidine-2,4-diamine], 0.3 nM.
The same measure, in the same setting: to `CNc1nc(Nc2cnn(C)c2C(C)C)ncc1C(F)(F)F` [Example 223, N2-(5-isopropyl-1-methyl-1H-pyrazol-4-yl)-N4-methyl-5-(trifluoromethyl) pyrimidine-2,4-diamine] belongs 14 nM; to `CNc1nc(Nc2cn(-c3ccc(Cl)cc3)nc2C)ncc1C(F)(F)F` [Example 129, N2-(1-(4-chlorophenyl)-3-methyl-1H-pyrazol-4-yl)-N4-methyl-5-(trifluoromethyl) pyrimidine-2,4-diamine], 28 nM.
Still for that read-out and setting: as for `CNc1nc(Nc2cn(S(C)(=O)=O)nc2C)ncc1Cl` [Example 101, 5-chloro-N4-methyl-N2-(3-methyl-1-(methylsulfonyl)-1H-pyrazol-4-yl)pyrimidine-2,4-diamine], the figure is 8.8 nM; as for `CNc1nc(Nc2cn(CC3(C)COC3)nc2C)ncc1C(F)(F)F` [Example 118, N4-methyl-N2-(3-methyl-1-((3-methyloxetan-3-yl)methyl)-1H-pyrazol-4-yl)-5-(trifluoromethyl) pyrimidine-2,4-diamine], 7.2 nM.
As for `CCNc1nc(Nc2cn(-c3ccc(C(=O)N(C)C)cc3)nc2C)ncc1C(F)(F)F` [Example 263, 4-[4-(4-Ethylamino-5-trifluoromethyl-pyrimidin-2-ylamino)-3-methyl-pyrazol-1-yl]-N,N-dimethyl-benzamide], the Ki came out at 1.8 nM.
Turning to `CNc1nc(Nc2cn(C3CCOC3)nc2C)ncc1C(F)(F)F` (stereo not shown) [Example 149, N4-methyl-N2-(3-methyl-1-(tetrahydrofuran-3-yl)-1H-pyrazol-4-yl)-5-(trifluoromethyl) pyrimidine-2,4-diamine], the Ki was determined as 6.8 nM.
On the same count and under the same terms, as for `CNc1nc(Nc2cnn(CC(F)(F)F)c2C)ncc1Br` [Example 96, 5-bromo-N4-methyl-N2-(5-methyl-1-(2,2,2-trifluoroethyl)-1H-pyrazol-4-yl)pyrimidine-2,4-diamine], the figure is 1.1 nM; as for `CNc1nc(Nc2cnn(C(C)c3ccccn3)c2C)ncc1C(F)(F)F` (stereo not shown) [Example 225, N4-methyl-N2-(5-methyl-1-(1-(pyridin-2-yl)ethyl)-1H-pyrazol-4-yl)-5-(trifluoromethyl) pyrimidine-2,4-diamine], 3.8 nM.
`CNc1nc(Nc2cnn(C[C@@H](C)OC)c2C)ncc1C(F)(F)F` [Example 192, (R)-N2-(1-(2-methoxypropyl)-5-methyl-1H-pyrazol-4-yl)-N4-methyl-5-(trifluoromethyl) pyrimidine-2,4-diamine]: the Ki amounted to 6.3 nM.
The same measure, in the same setting: as for `CNc1nc(Nc2cnn(C3CCC(=O)NC3)c2C)ncc1C(F)(F)F` (stereo not shown) [Example 154, 5-(5-methyl-4-(4-(methylamino)-5-(trifluoromethyl)pyrimidin-2-ylamino)-1H-pyrazol-1-yl)piperidin-2-one], the figure is 2.2 nM.
Same read-out and setting: to `CNc1nc(Nc2cnn(CC3CC3)c2C)ncc1C(F)(F)F` [Example 165, N2-(1-(cyclopropyl-methyl)-5-methyl-1H-pyrazol-4-yl)-N4-methyl-5-(trifluoromethyl) pyrimidine-2,4-diamine] belongs 1.2 nM; to `CCNc1nc(Nc2cnn(C3CCN(C(=O)C4CC4)CC3)c2C)ncc1C(F)(F)F` [Example 184, cyclopropyl(4-(4-(4-(ethylamino)-5-(trifluoromethyl)pyrimidin-2-ylamino)-5-methyl-1H-pyrazol-1-yl)piperidin-1-yl)methanone], 4.7 nM.
The same measure, in the same setting: to `CNc1nc(Nc2cnn(C(C)(C)COC)c2C)ncc1C(F)(F)F` [Example 203, N2-(1-(1-methoxy-2-methylpropan-2-yl)-5-methyl-1H-pyrazol-4-yl)-N4-methyl-5-(trifluoromethyl) pyrimidine-2,4-diamine] belongs 42 nM; to `CNc1nc(Nc2cn(C3CCN(C)CC3)nc2C)ncc1C(F)(F)F` [Example 209, N4-methyl-N2-(3-methyl-1-(1-methylpiperidin-4-yl)-1H-pyrazol-4-yl)-5-(trifluoromethyl) pyrimidine-2,4-diamine], 41 nM.
On to `CCNc1nc(Nc2cnn(CC3(C)COC3)c2C)ncc1C(F)(F)F` [Example 169, N4-ethyl-N2-(5-methyl-1-((3-methyloxetan-3-yl)methyl)-1H-pyrazol-4-yl)-5-(trifluoromethyl) pyrimidine-2,4-diamine], for which the Ki was 2.2 nM.
Still for that read-out and setting: to `CNc1nc(Nc2cnn(C3CCN(C(=O)C(C)C)CC3)c2C)ncc1C(F)(F)F` [Example 175, 2-methyl-1-(4-(5-methyl-4-(4-(methylamino)-5-(trifluoromethyl)pyrimidin-2-ylamino)-1H-pyrazol-1-yl)piperidin-1-yl)propan-1-one] belongs 6.8 nM; to `CNc1nc(Nc2cnn(CC(C)(C)N3CCOCC3)c2C)ncc1C(F)(F)F` [Example 288, N4-Methyl-N2-[5-methyl-1-(2-methyl-2-morpholin-4-yl-propyl)-1H-pyrazol-4-yl]-5-trifluoromethyl-pyrimidine-2,4-diamine], 7.7 nM; to `CCNc1nc(Nc2cnn(C3CCOCC3)c2C)ncc1C(F)(F)F` [Example 158, N4-ethyl-N2-(5-methyl-1-(tetrahydro-2H-pyran-4-yl)-1H-pyrazol-4-yl)-5-(trifluoromethyl) pyrimidine-2,4-diamine], 0.3 nM.
The same measure, in the same setting: as for `CCNc1nc(Nc2cnn(S(=O)(=O)C(C)C)c2C)ncc1C(F)(F)F` [Example 279, N4-Ethyl-N2-[5-methyl-1-(propane-2-sulfonyl)-1H-pyrazol-4-yl]-5-trifluoromethyl-pyrimidine-2,4-diamine], the figure is 4.7 nM.

As a reminder, the Ki is a dissociation constant, usually derived from enzyme kinetics or from competition with a known ligand.
